Reference: article PMC4958397, “Synthesis, antibacterial and antiproliferative potential of some new 1-pyridinecarbonyl-4-substituted thiosemicarbazide derivatives” (Medicinal Chemistry Research, 2016)
Read-outs that look alike come from different tables or passages of the source.

Columns and labels:
[1] = tested on: Lactobacillus spp.; experiment: Broth microdilution MIC; type: cell-based
From the text: Panel reference strains of bacteria from the American Type Culture Collection or Polish Collection of Microorganisms, including aerobic Gram-positive bacteria: Staphylococcus aureus ATCC 25923 and Staphylococcus epidermidis ATCC 12228, and aerobic Gram-negative bacteria: Escherichia coli ATCC 25922 and Pseudomonas aeruginosa ATCC 9027, as well as microaerobic Gram-positive bacteria: Lactobacillus spp., Lactobacillus acidophilus PCM 2105, Streptococcus mutans PCM 2502 and Streptococcus sanguinis PCM 2335, were used. Microbial suspensions with an optical density of 0.5 McFarland standard at 1.5 × 10^8 CFU/mL (CFU: colony forming unit) were prepared in sterile 0.9 % NaCl. Mueller–Hinton (M–H) broth and M–H agar (Oxoid Ltd., England) for aerobic strains, and MRS Broth Lactobacillus, MRS Agar Lactobacillus (BioMaxima S.A., Poland), BHI Broth and BHI agar (BioMaxima S.A., Poland) for microaerobic strains were used in the microbial tests.
A broth microdilution method was used to evaluate the minimum inhibition concentration (MIC) according to the CLSI document (CLSI performance standards for antimicrobial susceptibility testing, 2008, Eighteenth International Supplement, CLSI document M7-MIC, Clinical Laboratory Standards Institute, Wayne) with some modifications. […] A serial doubling dilution of the compounds was prepared in 96-well plates (200 μL per well). A suitable medium (M-H Broth, MRS Broth Lactobacillus, BHI Broth) was used as a diluent. The final concentrations of derivatives were 1000–0.015 μg/mL. Finally, 2 μL of inoculum of the tested bacterial strain (1.5 × 10^8 CFU/mL) was added to each well. The tests were performed either at 36 °C for 18 h (aerobic strains) or at 40 h (microaerobic strains). After incubation, the panel was digitally analyzed at 600 nm using the microplate reader Bio Tech Synergy (USA) with a dedicated software system. The growth intensity in each well was compared with the negative and positive controls.

[2] = tested on: MCF-7 (human breast adenocarcinoma); experiment: Cell proliferation MTT assay; type: cell-based; details: MCF7, 96 h, read-out: IC50, antiproliferative activity, MCF-7
Experimental: Normal human skin fibroblasts (BJ), human hepatocellular carcinoma (HepG2) and human breast adenocarcinoma (MCF-7) were obtained from American Type Culture Collection (ATCC, England, UK). The cells were cultured in Eagle’s minimum essential medium (EMEM, ATCC) supplemented with 10 % fetal bovine serum (FBS, PAA Laboratories), 100 U/mL penicillin and 100 μg/mL streptomycin (Sigma-Aldrich). In the case of the MCF-7 cell line, the culture medium was additionally supplemented with 0.01 μg/mL of human recombinant insulin (Sigma-Aldrich). The cells were grown in 75-cm^2 flasks and maintained at 37 °C in a humidified atmosphere of 5 % CO2 and 95 % air.
In order to evaluate cell proliferation, the cells were seeded in flat-bottom 96-well plates in 100 μL of a complete growth medium at a concentration of 2 × 10^3 cells/well (BJ), 1.5 × 10^4 cells/well (HepG2) and 2.5 × 10^4 cells/well (MCF-7) and incubated for 24 h at 37 °C in a humidified atmosphere of 5 % CO2. Before drug exposure, the synthesized compounds (1–10) were dissolved in DMSO and then diluted in a complete culture medium supplemented with 10 % FBS. Subsequently, the growth medium was gently removed and the cells were exposed to 100 μL of serial dilutions of the investigated compounds at concentrations ranging from 0.05 to 200 μg/mL. Untreated cells were used as negative controls, and different concentrations of DMSO were used as the solvent control. After 96-h incubation at 37 °C in a humidified atmosphere of 5 % CO2, cell proliferation was assessed using the MTT test as described previously (Cytotoxicity assay). The MTT assay was repeated in three independent experiments in quadruplicates. The half-maximal inhibitory concentration (IC50) was defined as the compound concentration (μg/mL) required to inhibit cell proliferation to 50 %.
The results of the in vitro cell culture experiments were presented as mean values ± standard deviation (SD) or as mean values ± standard error of the mean (SEM). The data were analyzed using one-way ANOVA test followed by Dunnett’s test. Differences were considered as significant with p < 0.01 (GraphPad Prism 5, Version 5.04 Software). The values of CC50 and IC50 were calculated via 4-parameter nonlinear regression analyses using GraphPad Prism 5, version 5.04.

Minimum inhibitory concentration (MIC), Lactobacillus spp. [1] | IC50 ([2]; mean ± SD) [mg/L] | MIC ([1]; Lactobacillus, read-out: Minimum inhibitory concentration (MIC), Lactobacillus spp.) [mg/L] | IC50 ([2]; same value in µM) [µM] | SMILES
did not limit the growth |  |  |  | CSc1ccc(NC(=S)NNC(=O)c2cccnc2)cc1 [Compound 6, 4-(4-Methylthiophenyl)-1-(pyridin-3-yl)carbonylthiosemicarbazide]
 | 14.8 ± 1.03 |  |  | O=C(NNC(=S)Nc1ccccc1Cl)c1ccccn1 [Compound 2, 4-(2-Chlorophenyl)-1-(pyridin-2-yl)carbonylthiosemicarbazide]
 | 8.63 | 31.2 | 25.3 | O=C(NNC(=S)Nc1ccc(Cl)cc1Cl)c1ccccn1 [Compound 4, 4-(2,4-Dichlorophenyl)-1-(pyridin-2-yl)carbonylthiosemicarbazide]
